US20120322819A1, “COMPOUND CONTAINING A NOVEL 4-ALKOXYPYRIMIDINE STRUCTURE AND MEDICINE CONTAINING SAME” (KOWA COMPANY, LTD., priority 2010, published 2012)

Assays:
[1] = target: T1, angiotensin II type 1 receptor (Oryctolagus cuniculus, UniProt P34976); assay: Angiotensin II antagonistic activity in isolated rabbit blood vessels (angiotensin II-induced contraction of thoracic aorta ring); conditions: angiotensin II (10 nM)-induced contraction, compound 1 nmol/L to 10 μmol/L, 37° C., read-out: IC50 (50% inhibition concentration of angiotensin II-induced contraction)
T1 construct: By using a specimen of isolated rabbit blood vessels; from tissue; host or cells: rabbit thoracic aorta ring (New Zealand White, male)
T1 sequence (P34976 1-359): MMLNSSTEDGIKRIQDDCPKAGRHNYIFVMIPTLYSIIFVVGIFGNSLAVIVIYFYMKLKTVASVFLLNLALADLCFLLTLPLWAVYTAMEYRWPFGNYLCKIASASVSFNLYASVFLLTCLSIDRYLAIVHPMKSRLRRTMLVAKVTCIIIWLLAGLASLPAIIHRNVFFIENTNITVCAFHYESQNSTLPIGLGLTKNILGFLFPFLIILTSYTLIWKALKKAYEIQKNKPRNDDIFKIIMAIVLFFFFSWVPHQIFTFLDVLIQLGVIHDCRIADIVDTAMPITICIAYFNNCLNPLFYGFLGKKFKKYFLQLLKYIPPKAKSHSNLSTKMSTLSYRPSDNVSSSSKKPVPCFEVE
Excerpt: Angiotensin II Antagonistic Activity in Isolated Rabbit Blood Vessels
By using a specimen of isolated rabbit blood vessels, antagonistic activity of the compounds of the invention against angiotensin II type 1 receptor was estimated from a dose-response curve of angiotensin II-induced blood vessel contraction. Specifically, the specimen of thoracic aorta ring of a rabbit (New Zealand White: male, 2.4 to 3.0 kg) was suspended in a magnus bath filled with Krebs-Henseleite buffer (composition: 118 mM NaCl, 4.7 mM KCl, 2.55 mM CaCl2, 1.18 mM MgSO4, 1.18 mM KH2PO4, 24.88 mM NaHCO3, and 11.1 mM D-glucose), and angiotensin II (10 nM)-induced contraction was obtained in the presence of the compounds of each example (1 nmol/L to 10 μmol/L). During the measurement, the inside temperature of the magnus bath was maintained at 37° C. and the bath was continuously ventilated with a sufficient amount of mixed gas (95% O2 and 5% CO2). The angiotensin II-induced contraction was converted into a relative value (%) that is based on the angiotensin II (10 nM)—induced contraction in the absence of the compounds of each example. From the concentration-response curve obtained therefrom, 50% inhibition concentration (IC50 value) was calculated by using SAS Preclinical Package Ver 5.0 (trade name, manufactured by SAS institute Japan Co., Tokyo, Japan), which is a statistical analysis program.

human PPARγ2 = target: T2, human PPARγ2 (Homo sapiens, UniProt P37231); assay: PPARγ activation activity, Gal4-PPARγ2 LBD chimera luciferase transfection assay in COST cells; assay type: cell-based; conditions: Gal4 (aa 1-147)/human PPARγ2 LBD (aa 182-505) chimera, luciferase reporter, 16 hours, rosiglitazone (3 to 10 μmol/L) = 100%, read-out: EC50 (50% effective concentration, PPARγ activation)
T2 construct: the amino acids 182 to 505 of human PPARγ2; expressed in transfected cells; host or cells: COST cells (so in the source)
T2 sequence (P37231 182-505): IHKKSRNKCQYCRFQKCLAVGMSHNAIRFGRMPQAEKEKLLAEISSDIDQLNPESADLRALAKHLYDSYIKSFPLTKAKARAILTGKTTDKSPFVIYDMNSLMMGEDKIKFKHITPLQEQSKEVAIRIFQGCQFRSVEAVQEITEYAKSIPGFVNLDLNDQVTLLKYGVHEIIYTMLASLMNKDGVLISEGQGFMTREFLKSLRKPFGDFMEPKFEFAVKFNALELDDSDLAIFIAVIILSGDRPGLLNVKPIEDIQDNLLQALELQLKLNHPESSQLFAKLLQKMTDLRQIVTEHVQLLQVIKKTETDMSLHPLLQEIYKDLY
Method: PPARγ Activation Activity
The agonistic activity of the compounds of the invention on PPARγ was measured based on the transfection assay using COST cells (DS Pharma Biomedical Co., Ltd., Osaka, Japan), which are the cell line derived from the kidney of the African green monkey. COST cells were cultured under 5% CO2 concentration, and DMEM medium containing 10% fetal bovine serum, glutamic acid, and antibiotics was used as a medium.
As an expression vector, a chimera in which DNA binding domain of Ga14, which is a yeast transcription factor, and ligand binding domain of human PPARγ2 are fused, i.e., a fused product between the amino acids 1 to 147 of Gal4 transcription factor and the amino acids 182 to 505 of human PPARγ2, was used. Furthermore, as a reporter vector, a firefly luciferase containing five copies of Gal4 recognition sequence in the promoter region was used. Plasmid transfection to the cells was performed according to a method which uses jetPEI (trade name, manufactured by Funakoshi Co., Ltd., Tokyo, Japan). Furthermore, β-galactosidase expression vector was employed as an internal standard.
After the transfection of the cells, the medium was replaced with a DMEM medium (containing 1% serum) added with the test compound, and the cells were further cultured for 16 hours. After that, the luciferase activity and β-galactosidase activity in the cell lysis solution were measured.
For the present test, dimethylsulfoxide (DMSO) was used for dissolution and dilution of the test compounds, and during the cell treatment, the DMSO concentration in DMEM medium (containing 1% serum) was adjusted to 0.1%. As a positive compound, rosiglitazone (trade name, manufactured by ALEXIS Corporation, Switzerland) was used. The percentage (%) of the luciferase activity of the each test compound (1 to 30 μmol/L) was calculated when the luciferase activity of rosiglitazone (3 to 10 μmol/L) is 100% and the luciferase activity in the absence of the test compound is 0%. The 50% effective concentration of the test compound (EC50, 50% effect concentration) was calculated by using SAS Preclinical Package Ver 5.0 (trade name, manufactured by SAS institute Japan Co., Tokyo, Japan), which is a statistical analysis program.

Row | SMILES | IC50 [1] | EC50 (human PPARγ2)
1 | CCCCc1nc(C)nc(OCC(=O)N2CCCCC2)c1Cc1ccc(-c2ccccc2-c2noc(=O)[nH]2)cc1 [Example 30] | 230 nM | 1210 nM
2 | CCCCc1nc(C)nc(OCCCC(=O)OCC)c1Cc1ccc(-c2ccccc2-c2noc(=O)[nH]2)cc1 [Example 6, ethyl 4-{{6-butyl-2-methyl-5-{[2′-(5-oxo-4,5-dihydro-1,2,4-oxadiazol-3-yl)-[1,1′-biphenyl]-4-yl]methyl}pyrimidin-4-yl}oxy}butanoate] | 130 nM | 870 nM
